Legend:
p38δ MAPK = p38δ MAPK (Homo sapiens, UniProt O15264); test: Dundee protein kinase screen; assay type: biochemical; conditions: read-out: %Remaining activity at 1µM NU6300
Procedure: (§1) Prior to determining its cellular activity, we carried out a screen to assess its selectivity against a panel of 131 protein kinases under conditions that would not distinguish between a reversible or irreversible mode of action. […] These 13 kinases and 29 additional kinases, selected for their known sensitivity to other inhibitors within the purine series, were then tested in a modified screening format in which the assay was repeated following a 4-hr pre-incubation (Table S3B). […] However, conformational flexibility around the active site may promote such an interaction with a residue from another part of the structure ([Martin et al., 2012]).
(§2) Table S3, Related to Figure 4. NCL-0006300 protein kinase selectivity. (A) NU6300 was tested at a single concentration of 1µM against 131 protein kinases present in a Dundee protein kinase screen (Bain et al., 2007). Values given are % activity remaining and are the average of duplicate measurements: 0-25% (red), 26-50% (yellow), 51-80% (black) and above 81% (green). The kinase domain sequences (as defined by UniProt) of […]
(§3) have a lysine residue at a position close to CDK2 Lys88 or Lys89. However, in the structure of tyrosine-protein kinase BTK (PDB ID: 3GEN) the residue equivalent to CDK2 Asp86 is Cys481 and therefore there is the potential for a covalent adduct to be formed through this side chain. Ephrin type-B receptor 3 (UniProt entry P54753) also encodes a cysteine residue (Cys717) that by sequence alignment would be predicted to be close to the CDK2 lysine pair. (B) Selected kinases were re-tested in the Dundee kinase screen against NU6300 at a single concentration of 0.5 µM both in the standard assay format and following a 4 hour pre-incubation in the presence of NU6300. Kinases which have very low activity after the 4 hour incubation so that results might not be wholly reliable are boxed in salmon. Kinases where the activity after a 4 hour pre-incubation is < 50% that in the standard assay format are highlighted in red.

TAO1 = target: T1, TAO1 (Homo sapiens, UniProt Q7L7X3); test: Dundee protein kinase screen; assay type: biochemical; conditions: TAO1, 1µM; read-out: %Remaining activity at 1µM NU6300
T1 sequence (Q7L7X3 1-1001): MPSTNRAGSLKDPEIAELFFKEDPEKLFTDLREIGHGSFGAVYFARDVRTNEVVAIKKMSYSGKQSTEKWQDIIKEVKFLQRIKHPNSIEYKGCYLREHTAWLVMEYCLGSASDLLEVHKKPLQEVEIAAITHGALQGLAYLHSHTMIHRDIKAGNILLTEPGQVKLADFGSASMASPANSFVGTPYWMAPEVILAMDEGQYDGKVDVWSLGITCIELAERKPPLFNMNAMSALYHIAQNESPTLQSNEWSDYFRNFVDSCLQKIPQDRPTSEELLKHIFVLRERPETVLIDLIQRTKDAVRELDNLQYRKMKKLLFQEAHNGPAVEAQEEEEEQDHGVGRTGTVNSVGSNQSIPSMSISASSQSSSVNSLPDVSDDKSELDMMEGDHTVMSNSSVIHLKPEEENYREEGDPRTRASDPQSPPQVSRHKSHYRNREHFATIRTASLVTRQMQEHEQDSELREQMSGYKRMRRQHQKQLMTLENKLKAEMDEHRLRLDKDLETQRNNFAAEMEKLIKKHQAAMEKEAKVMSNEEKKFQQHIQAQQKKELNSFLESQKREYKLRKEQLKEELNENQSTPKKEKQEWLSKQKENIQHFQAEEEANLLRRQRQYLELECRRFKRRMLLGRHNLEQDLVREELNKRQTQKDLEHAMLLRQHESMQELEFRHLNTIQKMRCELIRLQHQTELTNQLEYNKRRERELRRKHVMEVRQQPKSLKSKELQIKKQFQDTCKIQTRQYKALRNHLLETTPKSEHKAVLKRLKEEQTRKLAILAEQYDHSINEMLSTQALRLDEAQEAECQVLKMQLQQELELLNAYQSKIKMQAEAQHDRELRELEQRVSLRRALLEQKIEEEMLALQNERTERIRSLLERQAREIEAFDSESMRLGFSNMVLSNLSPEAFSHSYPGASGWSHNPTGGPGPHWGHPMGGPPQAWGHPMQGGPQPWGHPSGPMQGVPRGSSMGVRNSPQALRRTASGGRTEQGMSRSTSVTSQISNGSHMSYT
Procedure: as §1, §2, §3

Chain of p38δ MAPK (O15264 whole entry): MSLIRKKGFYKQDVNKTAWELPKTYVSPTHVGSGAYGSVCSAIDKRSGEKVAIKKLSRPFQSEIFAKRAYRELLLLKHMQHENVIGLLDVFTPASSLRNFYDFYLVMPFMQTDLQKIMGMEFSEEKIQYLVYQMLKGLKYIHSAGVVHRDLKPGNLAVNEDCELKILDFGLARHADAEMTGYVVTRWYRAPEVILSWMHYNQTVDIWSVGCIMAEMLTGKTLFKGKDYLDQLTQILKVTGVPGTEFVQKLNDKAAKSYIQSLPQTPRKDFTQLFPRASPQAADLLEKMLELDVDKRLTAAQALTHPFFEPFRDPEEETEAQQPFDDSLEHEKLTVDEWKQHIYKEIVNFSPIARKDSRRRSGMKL

C=CS(=O)(=O)c1ccc(Nc2nc(OCC3CCCCC3)c3nc[nH]c3n2)cc1 [NU6300, 6-(cyclohexylmethoxy)-N-(4-(vinylsulfonyl)phenyl)-9H-purin-2-amine] showed a remaining activity at 1 µM (p38δ MAPK) of 92% and a remaining activity at 1 µM (TAO1) of 27%.
